According to patent EP2730585B1, “PROTEIN-P[…] OBTAINED FROM TISSUES OF EMBRYOS OF HOOFED ANIMALS , USE ON SKIN TISSUE, METHOD FOR PRODUCING SAID COMPLEX AND PHARMACEUTICAL COMPOSITION” (Aktsionernoe Obschestvo "Pharm-Sintez", priority 2011, dated 2012):

Test system: mice marrow cells
Conditions: 20 mg/kg
Procedure: The study objective was detection and quantitative estimate of cytogenetic (mutagenic) activity of pharmacologic substances in polychromatophil cells (PCC) of mammal marrow. The method is based on microscopic recording of cells with micronuclei.
The experiments were performed to 2 months old male and female F1 (CBAx C57BI6/J) cross-breed mice weighing 18-20 g. Each group included 6 animals. The animals were kept at 12 hours light pattern with free food and water access. Animal experiments for assessment of mutagenic properties of the protein/polypeptide complex with single and five-time dosing were conducted in compliance with official records. Three sessions of experiments were carried out with corresponding controls: therapeutic dose was tested on male animals with a single introduction; subtoxic dose was tested on male animals with a single introduction; therapeutic dose was tested on male animals with a single introduction; subtoxic dose was tested on male animals and female with five-time introduction.
Taking into account that the possible presumed method for usage of the PPC at a clinic was intracutaneous, subcutaneous introduction, and external application, in this study subcutaneous introduction of the substance to mice was used. The PPC complex dosing for assessment of mutagenic activity was calculated based on the maximum human recommended daily therapeutic dose (TD). Subcutaneous introduction of PPC was recommended in the amount of 0.2 to 6 ml at 0.1 mg/ml concentration. In this case, a human therapeutic dose (TD), including a child's dose, can be 0.08 mg/kg/daily. In order to calculate an experiment dosing for mice, a conversion factor is recommended that takes into account a human or animal body surface area to weight ratio. In our study, it was 8.33. Therefore, the mice TD was approximately 8.33 x human TD (0.7 mg/kg).
As a subtoxic dose, 10mg/kg, the maximum possible in this experiment conditions dosing was used, as the substance was presented in 0.1 mg/ml concentration, and the normally used amount of substance for mice is 0.1 ml per 10 g. […]

O=P1(N(CCCl)CCCl)NCCCO1 (stereo not drawn) [Cyclophosphamide, cyclophosphamide]
polychromatophilic to normochromatic erythrocytes ratio (compared to control P<0.005): found to shift to the latter
frequency of micronucleus cells (male mice): 62.1%
increased frequency of micronucleus cells (male mice, against reference, P<0.001): 19.6 times
